Patent US20210290648A1, “Potentiation of B-Lactam Antibiotics and B-Lactam/B-Lactamase Inhibitor Combinations Against Multidrug and Extensively Drug-Resistant Pseudomonas Aeruginosa Using Non-Ribosomal Tobramycin-Cyclam Conjugates” (University of Manitoba, priority 2018, published 2021)

How the values were obtained:
PA 259 = test: Checkerboard combination study / MIC; assay type: cell-based, Pseudomonas aeruginosa; conditions: for MICCombination (antibiotic): MIC of antibiotic combined with compound 2; for FICI: antibiotic + compound 2; for MICAntibiotic: antibiotic alone
PA 260 = test: Checkerboard combination study / MIC; assay type: cell-based, Pseudomonas aeruginosa; conditions: for MICCombination (antibiotic): MIC of antibiotic combined with compound 2; for FICI: antibiotic + compound 2; for MICAntibiotic: antibiotic alone
PA 101243 = test: Checkerboard combination study / MIC; assay type: cell-based, Pseudomonas aeruginosa; conditions: PA 101243; for MICCombination (antibiotic): MIC of antibiotic combined with compound 2; for FICI: antibiotic + compound 2; for MICAntibiotic: antibiotic alone
PA 91433 = test: Checkerboard combination study / MIC; assay type: cell-based, Pseudomonas aeruginosa; conditions: PA 91433; for MICCombination (antibiotic): MIC of antibiotic combined with compound 2; for FICI: antibiotic + compound 2; for MICAntibiotic: antibiotic alone; for FICAntibiotic: with compound 2
[1] = system: MDR PA101885-challenged larvae; test: Galleria mellonella infection model, efficacy; assay type: in vivo; conditions: aztreonam 25 mg/kg single dose; after 24 h
Protocol: In vivo synergistic effects were determined using Galleria mellonella infection model, as previously described (20). Briefly, worms were purchased from The Worm Lady® Live Feeder (ON, Canada), stored in their natural habitat at 16° C., and used within 10 days of delivery. The worms (average weight of 250 mg) were used for tolerability and efficacy studies. Tolerability study was performed by injecting 10 μL of antimicrobial agents only at concentrations equivalent to 100 mg/kg or 200 mg/kg. The worms (ten in each group) were incubated at 37° C. and monitored for 96 h. For efficacy studies, the virulence and bacterial load required to kill 100% of the worms within 12-18 h (with no treatment) was first determined, which is approximately 5 CFU. Overnight grown culture of respective MDR P. aeruginosa isolate was standardized to 0.5 McFarland standard and diluted in PBS to a final concentration of 5×10^2CFU/mL. 10 μL of this solution (5 CFU) was injected into each worm and incubated for 3 h at 37° C. […] Worms treated with 10 μL PBS or high concentrations of test antibiotics served as negative and positive control, respectively. The worms were incubated at 37° C. in Petri dishes lined with filter paper and scored for survivability every 6 h for up to 48 h. This experiment was repeated to give a total of thirty worms (n=30) in each case. Survival data curves were plotted using Kaplan-Meier survival analysis.

PA 101885 = test: Checkerboard combination study / MIC; assay type: cell-based, Pseudomonas aeruginosa; conditions: for MICCombination (antibiotic): MIC of antibiotic combined with compound 2; for FICI: antibiotic + compound 2; for MICAntibiotic: antibiotic alone
PA 264 = test: Checkerboard combination study / MIC; assay type: cell-based, Pseudomonas aeruginosa; conditions: for MICCombination (antibiotic): MIC of antibiotic combined with compound 2; for FICI: antibiotic + compound 2; for MICAntibiotic: antibiotic alone; for FICAntibiotic: with compound 2
PAO200 = assay type: cell-based, Pseudomonas aeruginosa; conditions: for MIC of antibiotic alone in PAO200: PAO200 efflux-deficient
Source text: (§1) PAO200 is a tnexA-rnexB-oprM deletion strain while PAO750 lacks five important RND pumps (McxAB-OprM, MexCD-OprJ, MexEF-OprN, Mex JK, and MexXY) and the outer membrane protein OpmH (46, 47). Some of these pumps are homologues of broad substrate specificities that extrude different classes of antimicrobial agents and confer resistance on P. aeruginosa (48).
(§2) Antimicrobial Susceptibility Assay. The in vitro antimicrobial activity of all compounds/antibiotics against a panel of bacteria was evaluated by microbroth dilution method in accordance with the Clinical and Laboratory Standards Institute (CLSI) guidelines. Overnight grown bacterial cultures were diluted in saline to achieve a 0.5 McFarland turbidity, followed by 1:50 dilution in Mueller-Hinton broth (MHB) for inoculation to a final concentration of approximately 5×10^5CFU/mL. The antimicrobial agents were 2-fold serially diluted in MHB in a 96-well plate and incubated at 37° C. with equal volumes of inoculum for 18 h. The lowest concentration that prevented the visible growth of bacteria was defined as the MIC for each antimicrobial agent. The broth with or without bacterial cells was used as positive or negative control, respectively.
(§3) Checkerboard Assay. Combination studies with different antibiotics were performed in 96-well plates as previously described (22). Briefly, the antibiotic of interest was serially diluted in MHB along the abscissa while the adjuvant (newly synthesized conjugates) was serially diluted in MHB along the ordinate. This creates a 10×7 matrix wherein each well consists of a combination of different antibiotic and adjuvant concentrations. Overnight grown bacterial cultures were diluted in saline to achieve a 0.5 McFarland turbidity, followed by 1:50 dilution in Mueller-Hinton broth (MHB) for inoculation to a final concentration of approximately 5×10^5CFU/mL. Equal volume of this bacterial culture was then added to each well and incubated at 37° C. for 18 h. After incubation, the plates were read on EMax® Plus microplate reader (Molecular Devices, Sunnyvale, Calif., USA) at 590 nm. MIC was recorded as wells with the lowest concentration of drugs with no bacterial growth. The fractional inhibitory concentration (FIC) for each antibiotic was calculated by dividing the MIC of the antibiotic in the presence of adjuvant by the MIC of the antibiotic alone. Similarly, the FIC of adjuvant was calculated by dividing the MIC of the adjuvant in the presence of antibiotic by the MIC of the adjuvant alone. FIC index is the sum of both FICs. FIC indices of <0.5 were deemed synergistic; 0.5-4, no interaction; and >4, antagonistic.

PAO750 = assay type: cell-based, Pseudomonas aeruginosa; conditions: for MIC of antibiotic alone in PAO750: PAO750 efflux-deficient
Source text: as §1, §2, §3

[2] = system: MDR/XDR P. aeruginosa clinical isolates; test: MIC and checkerboard, panel of clinical isolates; assay type: cell-based, Pseudomonas aeruginosa; conditions: antibiotic + compound 2 (8.7 μM); resistant P. aeruginosa isolates
[3] = system: Galleria mellonella larvae; test: Galleria mellonella tolerability study; conditions: 100 mg/kg and 200 mg/kg injected alone; after 48 h
Protocol: In vitro and in vivo discordances have been observed in antimicrobial chemotherapy, thus, therapeutic efficacy may not necessarily be reliably extrapolated based on in vitro data alone. […] Colistin (100 mg/kg), an antibiotic well known for its toxicity towards eukaryotes, served as a positive control for this experiment while PBS served as negative control. […] Survivability was scored for a total of 4 days.
In vivo larvae-infection model. In vivo synergistic effects were determined using Galleria mellonella infection model, as previously described (20). Briefly, worms were purchased from The Worm Lady® Live Feeder (ON, Canada), stored in their natural habitat at 16° C., and used within 10 days of delivery. The worms (average weight of 250 mg) were used for tolerability and efficacy studies. Tolerability study was performed by injecting 10 μL of antimicrobial agents only at concentrations equivalent to 100 mg/kg or 200 mg/kg. The worms (ten in each group) were incubated at 37° C. and monitored for 96 h. […] Overnight grown culture of respective MDR P. aeruginosa isolate was standardized to 0.5 McFarland standard and diluted in PBS to a final concentration of […]. 10 μL of this solution (5 CFU) was injected into each worm and incubated for 3 h at 37° C. […] Worms treated with 10 μL PBS or high concentrations of test antibiotics served as negative and positive control, respectively. The worms were incubated at 37° C. in Petri dishes lined with filter paper and scored for survivability every 6 h for up to 48 h. This experiment was repeated to give a total of thirty worms (n=30) in each case. Survival data curves were plotted using Kaplan-Meier survival analysis.

| Structure (SMILES) | MICCombination (antibiotic) (PA 259) [µg/mL] | FICI (PA 259) | MICAntibiotic (PA 259) [µg/mL] | MICCombination (antibiotic) (PA 260) [µg/mL] | FICI (PA 260) | MICAntibiotic (PA 260) [µg/mL] | MICCombination (antibiotic) (PA 101243) [µg/mL] | FICI (PA 101243) | MICAntibiotic (PA 101243) [µg/mL] | MICCombination (antibiotic) (PA 91433) [µg/mL] | FICI (PA 91433) | MICAntibiotic (PA 91433) [µg/mL] | FICAntibiotic (PA 91433) | MICCombination (antibiotic) (PA 101885) [µg/mL] | FICI (PA 101885) | MICAntibiotic (PA 101885) [µg/mL] | MICCombination (antibiotic) (PA 264) [µg/mL] | FICI (PA 264) | MICAntibiotic (PA 264) [µg/mL] | FICAntibiotic (PA 264) | also measured |
| --- | --- | --- | --- | --- | --- | --- | --- | --- | --- | --- | --- | --- | --- | --- | --- | --- | --- | --- | --- | --- | --- |
| C[C@H]1[C@H](NC(=O)/C(=N\OC(C)(C)C(=O)O)c2csc(N)n2)C(=O)N1S(=O)(=O)O [Aztreonam] | 4 | <0.19 | 32 | 8 | <0.19 | 64 | 8 | <0.26 | 32 | 512 | <1.06 | 512 | 1.000 | 0.5 | <0.09 | 16 | 16 | <0.28 | 64 | 0.250 | FICAntibiotic (PA 101243; with compound 2): 0.250; survival of larvae [1]: 50%; FICAntibiotic (PA 101885; with compound 2): 0.031; MIC of antibiotic + Compound 2 in PAO200 (PAO200; + compound 2 ≤8.7 μM, PAO200): 0.016 µg/mL; MIC of antibiotic alone in PAO200 (PAO200): 0.25 µg/mL; MIC of antibiotic + Compound 2 in PAO750 (PAO750; + compound 2 ≤8.7 μM, PAO750): 0.031 µg/mL; MIC of antibiotic alone in PAO750 (PAO750): 0.5 µg/mL; resistant isolates reaching CLSI clinical breakpoint [2]: seven out of nine; survival of larvae [3]: 100% |
| CC(C)(O/N=C(\C(=O)N[C@@H]1C(=O)N2C(C(=O)[O-])=C(C[n+]3ccccc3)CS[C@H]12)c1csc(N)n1)C(=O)O [Ceftazidime] | 64 | <0.19 | 512 | 16 | <0.52 | 32 | 8 | <0.13 | 64 | 512 | <0.50 | 1024 | 0.500 | 1 | <0.16 | 8 | 32 | <0.28 | 128 | 0.250 | FICAntibiotic (PA 260; with compound 2): 0.500; MIC of antibiotic alone in PAO200 (PAO200): 2 µg/mL; MIC of antibiotic alone in PAO750 (PAO750): 1 µg/mL; resistant isolates reaching CLSI clinical breakpoint [2]: three out of six; survival of larvae [3]: 100% |
